From patent publication US12630803B2, “Method of increasing proliferation of pancreatic beta cells, treatment method, and composition” (ICAHN SCHOOL OF MEDICINE AT MOUNT SINAI, priority 2018, dated 2026)
“Also recorded” adds a separate entry of the source. Ends that are not written are not given here.

Legend:
human beta cells [1] = experiment: Ki67-insulin immunolabeling of dispersed human islet cells (beta cell proliferation); settings: for ability to replace or mimic GLP1 in harmine-GLP1 proliferation: agent administered together with harmine, FIGS. 5A-5C, 5E, 5F; for actual Ki67% values: DYRK1A inhibitor alone, dispersed human islets, 96 hours, FIG. 1F; for synergy of DYRK1A inhibitor with GLP1 on beta cell proliferation: in combination with GLP1, FIGS. 1F, 4; for synergy of GLP1R agonist with harmine on beta cell proliferation: in combination with harmine, FIG. 1G; for proliferation, agent alone at low dose: harmine 1 μM alone or GLP1 alone, FIG. 3E
Text: (§3) Human Islets: Human islets from 81 normal donors were obtained through the NIH-supported Integrated Islet Distribution Program (IIDP), the Alberta Diabetes Institute Islet Core at the University of Alberta, and the Clinical Islet Laboratory, University of Alberta Hospital. Islets were harvested from pancreata from deceased organ donors without any identifying information with informed consent and IRB approval at the islet-isolating centers. […] In addition, islets were obtained from 11 donors with Type 2 diabetes. […] Three were known to be on diabetes medications (metformin n=3, DPP4 inhibitor n=1). […] Whole islets were pelleted by centrifugation at 200×G and washed twice in PBS. Islets were then incubated in Accutase for 15-17 minutes at 37° C. and completely dispersed to single cells by pipette trituration. Single islet cells were pelleted by centrifugation at 700×G and re-suspended in islet culture medium.
(§4) Compound Treatments: Dispersed islets were plated on poly-D-lysine-laminin-coated glass chamber slides or coverslips. Cells derived from 20-30 IEQ dispersed cells were seeded per well, and allowed to recover for 24 hr prior to compound treatment. Cells were treated for 96 hours prior to Ki67 staining, BrdU staining or TUNEL labeling.
Antibodies were diluted in blocking buffer (5% normal goat serum (NGS), 1% bovine serum albumin (BSA), 0.5% Triton, in PBS). […] BrdU (Cell Proliferation Labelling Reagent. Amersham GE Healthcare. GE: RPN201) was added to each treatment at a 1:100 dilution, 18 hours prior to fixation. Antigen retrieval for BrdU immunostaining was performed following fixation using 1N HCl at 37° C. for 30 minutes before primary antibody incubation.

T2D beta cells = settings: FIGS. 9D-9E
Text: as §3, §4
Antibodies were diluted in blocking buffer (5% normal goat serum (NGS), 1% bovine serum albumin (BSA), 0.5% Triton, in PBS). […]

human beta cells [2] = experiment: TUNEL assay of beta cell death; assay type: cell-based; settings: 96 hours, FIGS. 10C-10D
Text: (§1) Primary and secondary antisera used are listed below.

delta (SST+) cells = experiment: BrdU labeling in delta (SST+) cells of dispersed human islets; assay type: cell-based
Text: as §1

alpha (GCG+) cells = experiment: BrdU labeling in alpha (GCG+) cells of dispersed human islets; assay type: cell-based
Text: as §1

ductal (CK19+) cells = experiment: BrdU labeling in ductal (CK19+) cells of dispersed human islets; assay type: cell-based
Text: as §1

PDX1, MAFA, and NKX6.1 = settings: normal donors, FIG. 8B
Procedure: Antibodies were diluted in blocking buffer (5% normal goat serum (NGS), 1% bovine serum albumin (BSA), 0.5% Triton, in PBS). Primary and secondary antisera used are listed below. BrdU (Cell Proliferation Labelling Reagent. Amersham GE Healthcare. GE: RPN201) was added to each treatment at a 1:100 dilution, 18 hours prior to fixation. Antigen retrieval for BrdU immunostaining was performed following fixation using 1N HCl at 37° C. for 30 minutes before primary antibody incubation. Cells were incubated with primary and secondary antibodies according to Table 4 below before counterstained with DAPI.

[3] = tested on: markers of beta cell differentiation; experiment: qPCR of differentiation markers in islets from donors with T2D; assay type: cell-based, human; settings: FIG. 9A
Text: Purity ranged from 55% to 85%.
(§2) Primers are shown below in Tables 5 and 6.

beta (INS+) cells = experiment: BrdU labeling in beta (INS+) cells of dispersed human islets; assay type: cell-based
Text: as §1

cell cycle molecules = experiment: qPCR of cell cycle activators and inhibitors in human islets; assay type: cell-based; settings: GLP1 added to harmine, vs harmine alone, 72 hours
Text: as §2

[4] = GLP1 added to harmine, vs harmine alone

Compound: CCCC(=O)Nc1ncnc2c1ncn2[C@@H]1O[C@@H]2COP(=O)(O)O[C@H]2[C@H]1OC(=O)CCC [di-butyryl cAMP, dibutyryl cAMP]
- ability to replace or mimic GLP1 in harmine-GLP1 proliferation (human beta cells [1]): can replace GLP1
- ability to replace or mimic GLP1 in harmine-GLP1 proliferation (human beta cells [1]; listed as dibutyryl-cyclicAMP): mimicked
- effect on human beta cell proliferation, agent administered alone (human beta cells [1]): no effect on proliferation

Compound: Nc1ncnc2c1c(I)cn2[C@@H]1O[C@H](CO)[C@@H](O)[C@H]1O [5-IT, 5-iodotubercidin]
- actual Ki67% values (human beta cells [1]): 2.6%
- synergy of DYRK1A inhibitor with GLP1 on beta cell proliferation (human beta cells [1]): synergistic

Compound: CCN1/C(=C/C(C)=O)Sc2ccc(O)cc21 [INDY]
- actual Ki67% values (human beta cells [1]): 1.7%
- synergy of DYRK1A inhibitor with GLP1 on beta cell proliferation (human beta cells [1]): synergistic

Compound: O=C1NC(Nc2ccccc2)=N/C1=C\c1ccc2c(c1)OCO2 [leucettine]
- actual Ki67% values (human beta cells [1]): 2.8%
- synergy of DYRK1A inhibitor with GLP1 on beta cell proliferation (human beta cells [1]): synergistic

Compound: lixisenatide: GLP1R agonist
- synergy of GLP1R agonist with harmine on beta cell proliferation (human beta cells [1]): synergy was also apparent

Compound: O=S(=O)(NCCNC/C=C/c1ccc(Br)cc1)c1cccc2cnccc12 [H89]
- effect on human beta cell proliferation, agent administered alone (human beta cells [1]): no effect on its own

Compound: OCCN(CCO)c1nc(N2CCCCC2)c2nc(N(CCO)CCO)nc(N3CCCCC3)c2n1 [dipyridamole]
- ability to replace or mimic GLP1 in harmine-GLP1 proliferation (human beta cells [1]): mimicked; also recorded: can replace GLP1
- effect on human beta cell proliferation, agent administered alone (human beta cells [1]): no effect on proliferation

Compound: CC(C)Cn1c(=O)n(C)c(=O)c2[nH]cnc21 [IBMX, 3-Isobutyl-1-methylxanthine]
- ability to replace or mimic GLP1 in harmine-GLP1 proliferation (human beta cells [1]): mimicked; also recorded: can replace GLP1
- effect on human beta cell proliferation, agent administered alone (human beta cells [1]): no effect on proliferation

Compound: COc1ccc2c(c1)[nH]c1c(C)nccc12 [harmine]
- actual Ki67% values (human beta cells [1]): 2.1%
- proliferation, agent alone at low dose (human beta cells [1]): little or no proliferation
- human beta cell proliferation (Ki67 in insulin-positive cells) (human beta cells [1]; harmine alone): ~2%
- actual Ki67% value (human beta cells [1]; harmine alone, experiments of FIG. 1G): 2.2%
- beta cell proliferation (Ki67 immunolabeling) (T2D beta cells): activated beta cell proliferation in T2D beta cells
- markers of beta cell death (TUNEL) (human beta cells [2]): Neither harmine nor the harmine-GLP1 combination treatment induced markers of beta cell death
- proliferation (BrdU) in delta cells (delta (SST+) cells; harmine alone): activates proliferation
- proliferation (BrdU) in alpha cells (alpha (GCG+) cells; harmine alone): activates proliferation
- proliferation (BrdU) in ductal cells (ductal (CK19+) cells; harmine alone): activates proliferation
- PDX1, MAFA and NKX6.1 proteins in beta cells (PDX1, MAFA, and NKX6.1): increases in beta cell nuclei
- expression of differentiation markers (qPCR) [3]: did not have adverse effects on differentiation
- expression of differentiation markers (qPCR) ([3]; listed as Harmine): increased the expression of PDX1, MAFB, NKX6.1, GLUT2, GLP1R, and PCSK1
- proliferation (BrdU) in beta cells (beta (INS+) cells; harmine alone): activates proliferation

Compound: GLP1(7-36)amide (HAEGTFTSDVSSYLEGQAAKEFIAWLVKGR-NH2; UniProt P01275 98-127, looked up) [GLP1R agonist (H-6795, Bachem)]
- effect on human beta cell proliferation, agent administered alone (human beta cells [1]): negligible effects
- proliferation, agent alone at low dose (human beta cells [1]): little or no proliferation
- synergy of GLP1R agonist with harmine on beta cell proliferation (human beta cells [1]): synergy was also apparent
- proliferation (BrdU) in delta cells (delta (SST+) cells; [4]): no additional effect
- proliferation (BrdU) in alpha cells (alpha (GCG+) cells; [4]): no additional effect
- proliferation (BrdU) in ductal cells (ductal (CK19+) cells; [4]): further increased proliferation; also recorded: accentuates
- change to cell cycle activators or inhibitors (qPCR) (cell cycle molecules): no incremental change to cell cycle activators or inhibitors
- proliferation (BrdU) in beta cells (beta (INS+) cells; [4]): further increased proliferation; also recorded: accentuates

Compound: exendin-4: GLP1R agonist (11940, Cayman)
- synergy of GLP1R agonist with harmine on beta cell proliferation (human beta cells [1]): synergy was also apparent

Compound: CC(C)Oc1ccc(F)c(-c2cnc(N)c(C(=O)Nc3cnccc3N3CCC[C@@H](C(=O)O)C3)n2)c1 [GNF4877]
- actual Ki67% values (human beta cells [1]): 2.9%
- synergy of DYRK1A inhibitor with GLP1 on beta cell proliferation (human beta cells [1]): synergistic
